One may read the inhibition as the drop in the measured response relative to a control, in per cent. What is called Inhibition is the drop in the measured response relative to a control, in per cent. A lower Inhibition goes with little suppression.

15 molecules from ChEMBL document CHEMBL1130638, “Hepatoprotective, superoxide scavenging, and antioxidative activities of aromatic constituents from the bark of Betula platyphylla var. japonica” (1998) can be followed below.

What all share (type): functional
The species named for assay [1] is Rattus norvegicus. In words: Compound was tested for hepatoprotective activity against D-GalN-induced cytotoxicity in primary cultured rat hepatocytes at 10 uM dose. The conditions noted are these: Hepatocyte.
The species entered for assay [2] is Rattus norvegicus. In words: Compound was tested for hepatoprotective activity against D-GalN-induced cytotoxicity in primary cultured rat hepatocytes at 3 uM dose. The conditions noted are these: Hepatocyte.
Assay [3] is filed under the species Rattus norvegicus. Nature of the assay: Compound was tested for hepatoprotective activity against D-GalN-induced cytotoxicity in primary cultured rat hepatocytes at 30 uM dose. The conditions noted are these: Hepatocyte.
Assay [4] is filed under the species Rattus norvegicus. Nature of the assay: Compound was tested for antioxidative activity using TBA method at a concentration of 200 ug/ml.
The species named for assay [5] is Rattus norvegicus. In words: Compound was tested for O2- scavenging activity using NBT method at a concentration of 20 ug/ml.
Assay [6] is filed under the species Rattus norvegicus. Nature of the assay: Compound was tested for hepatoprotective activity against D-GalN-induced cytotoxicity in primary cultured rat hepatocytes at 100 uM dose. To be noted: Hepatocyte.
The species named for assay [7] is Rattus norvegicus. In words: Compound was tested for antioxidative activity using TBA method at a concentration of 200 ug/mL.
Assay [8] is filed under the species Rattus norvegicus. In words: Compound was tested for O2- scavenging activity using NBT method at a concentration of 20 ug/mL.

`OC[C@H]1O[C@@H](O[C@@H](CCc2ccc(O)cc2)C[C@H](O)CCc2ccc(O)cc2)[C@H](O)[C@H](O)[C@H]1O`: the inhibition at 10 µM in the assay filed under Rattus norvegicus [1] was 14.1%. Moreover, the inhibition at 3 µM in the assay listed under Rattus norvegicus [2] came to 16.2%. For the same molecule, in the assay filed under Rattus norvegicus [3], the inhibition at 30 µM turned out to be 27.3%. Further, the Inhibition in the assay filed under Rattus norvegicus [4] is recorded as 56.3%. Besides, the inhibition in the assay listed under Rattus norvegicus [5] was found to be 1%. Besides, in the assay listed under Rattus norvegicus [6], the inhibition at 100 µM is 74.7%.

Regarding `COc1cc([C@@H]2c3c(cc(OC)c(O)c3OC)C[C@H](CO)[C@H]2CO[C@H]2O[C@@H](CO)[C@@H](O)[C@H](O)[C@@H]2O)cc(OC)c1O`, in the assay listed under Rattus norvegicus [1], the inhibition at 10 µM was determined as 7.6%. Besides, the inhibition at 3 µM in the assay listed under Rattus norvegicus [2] was found to be 8.3%. Further, the inhibition at 30 µM in the assay listed under Rattus norvegicus [3] stood at 10.5%. For the same molecule, in the assay filed under Rattus norvegicus [7], the Inhibition was 87.2%. Further, the inhibition in the assay filed under Rattus norvegicus [8] was 58.8%. Also, the inhibition at 100 µM in the assay listed under Rattus norvegicus [6] is 28.9%.

In the case of `C[C@H](CCc1ccc(O)cc1)O[C@@H]1O[C@H](CO[C@@H]2O[C@H](CO)[C@@H](O)[C@@H]2O)[C@H](O)[C@@H](O)[C@H]1O`, the inhibition at 10 µM in the assay filed under Rattus norvegicus [1] is 6.2%. Besides, the inhibition at 3 µM in the assay filed under Rattus norvegicus [2] came out at 3.4%. For the same molecule, in the assay filed under Rattus norvegicus [3], the inhibition at 30 µM came to 7.5%. This molecule had an Inhibition in the assay filed under Rattus norvegicus [7] of 98.2%. For the same molecule, the inhibition in the assay listed under Rattus norvegicus [8] came to 5.1%. In addition, the inhibition at 100 µM in the assay filed under Rattus norvegicus [6] stood at 6.8%.

In the assay listed under Rattus norvegicus [7], `O=C1c2c(O)cc(O)cc2O[C@H](c2ccc(O)c(O)c2)[C@H]1O` [(+)-TAXIFOLIN] gave an Inhibition of 37%. Further, the inhibition in the assay listed under Rattus norvegicus [8] came to 93.8%.

As for `Oc1ccc([C@H]2Oc3cc(OC4OCC(O)C(O)C4O)cc(O)c3C[C@@H]2O)cc1O` (stereo partly specified), in the assay filed under Rattus norvegicus [1], the inhibition at 10 µM stood at 8.8%. Also, in the assay filed under Rattus norvegicus [2], the inhibition at 3 µM came out at 4.8%. The inhibition at 30 µM in the assay listed under Rattus norvegicus [3] worked out at 8.5%. The Inhibition in the assay filed under Rattus norvegicus [7] worked out at 50.1%. Further, the inhibition in the assay listed under Rattus norvegicus [8] is 92.9%. Moreover, the inhibition at 100 µM in the assay listed under Rattus norvegicus [6] turned out to be 9.4%.

For the molecule `Cc1c(C)c2c(c(C)c1O)CC[C@@](C)(CCC[C@H](C)CCC[C@H](C)CCCC(C)C)O2` [ALPHA-TOCOPHEROL], the Inhibition in the assay filed under Rattus norvegicus [7] was found to be 56.7%.

In the case of `C[C@H](CCc1ccc(O)cc1)O[C@@H]1O[C@H](CO)[C@@H](O)[C@H](O)[C@H]1O`, the inhibition at 10 µM in the assay listed under Rattus norvegicus [1] turned out to be 10.1%. For the same molecule, the inhibition at 3 µM in the assay listed under Rattus norvegicus [2] came to 4.7%. The inhibition at 30 µM in the assay filed under Rattus norvegicus [3] worked out at 4.9%. Moreover, the inhibition at 100 µM in the assay filed under Rattus norvegicus [6] was -0.8%.

`C[C@@H](CCc1ccc(O)cc1)O[C@@H]1O[C@H](CO[C@@H]2O[C@@H](CO)[C@H](O)[C@H]2O)[C@@H](O)[C@H](O)[C@H]1O`: the inhibition at 10 µM in the assay listed under Rattus norvegicus [1] came to 3.6%. The inhibition at 3 µM in the assay listed under Rattus norvegicus [2] turned out to be 10.1%. Also, in the assay listed under Rattus norvegicus [3], the inhibition at 30 µM amounted to 9.6%. Moreover, the inhibition in the assay listed under Rattus norvegicus [8] was 4%. Besides, the inhibition at 100 µM in the assay filed under Rattus norvegicus [6] worked out at 5.4%.

Regarding `C[C@H](CCc1ccc(O)cc1)O[C@@H]1O[C@H](CO[C@@H]2OC[C@](O)(CO)[C@H]2O)[C@H](O)[C@@H](O)[C@H]1O`, the inhibition at 10 µM in the assay filed under Rattus norvegicus [1] is -1.6%. In addition, the inhibition at 3 µM in the assay filed under Rattus norvegicus [2] is 1.4%. Besides, the inhibition at 30 µM in the assay filed under Rattus norvegicus [3] was determined as 2.1%. In the assay listed under Rattus norvegicus [7], this molecule came in with an Inhibition of 93.5%. For the same molecule, the inhibition in the assay filed under Rattus norvegicus [8] worked out at 1.8%. The inhibition at 100 µM in the assay listed under Rattus norvegicus [6] was -2.3%.

Consider `OC[C@@]1(O)CO[C@@H](OC[C@H]2O[C@@H](O[C@H](CCCCc3ccc(O)cc3)CCc3ccc(O)cc3)[C@H](O)[C@H](O)[C@H]2O)[C@@H]1O`, for which, in the assay filed under Rattus norvegicus [1], the inhibition at 10 µM turned out to be 38.4%. For the same molecule, the inhibition at 3 µM in the assay listed under Rattus norvegicus [2] was determined as 28.3%. The inhibition at 30 µM in the assay listed under Rattus norvegicus [3] came out at 43.9%. Further, in the assay filed under Rattus norvegicus [6], the inhibition at 100 µM stood at 55.3%.

With `COc1cc([C@H]2c3c(cc(OC)c(O)c3OC)C[C@@H](CO)[C@@H]2CO[C@H]2O[C@@H](CO)[C@@H](O)[C@H](O)[C@@H]2O)cc(OC)c1O`, the inhibition at 10 µM in the assay filed under Rattus norvegicus [1] is 24.8%. Also, in the assay listed under Rattus norvegicus [2], the inhibition at 3 µM was 22.3%. The inhibition at 30 µM in the assay filed under Rattus norvegicus [3] worked out at 24.1%. This molecule gave an Inhibition in the assay listed under Rattus norvegicus [7] of 96.8%. In addition, the inhibition in the assay listed under Rattus norvegicus [8] was found to be 67.3%. In addition, the inhibition at 100 µM in the assay listed under Rattus norvegicus [6] is 26.9%.

`C[C@@H](CCc1ccc(O)cc1)O[C@@H]1O[C@H](CO[C@@H]2OC[C@](O)(CO)[C@H]2O)[C@H](O)[C@@H](O)[C@H]1O`: in the assay listed under Rattus norvegicus [1], the inhibition at 10 µM came out at 1.7%. In the assay filed under Rattus norvegicus [2], the inhibition at 3 µM stood at 3.6%. In the assay listed under Rattus norvegicus [3], the inhibition at 30 µM is 0.7%. The molecule also showed an Inhibition in the assay listed under Rattus norvegicus [7] of 21.8%. Moreover, the inhibition in the assay listed under Rattus norvegicus [8] came out at 10.8%. Further, in the assay listed under Rattus norvegicus [6], the inhibition at 100 µM is -4.5%.

In the assay filed under Rattus norvegicus [7], `COc1cc(C(C)(C)C)c(O)c(C(C)(C)C)c1` showed an Inhibition of 88%.

In the assay filed under Rattus norvegicus [7], `Cc1cc(C(C)(C)C)c(O)c(C(C)(C)C)c1` [BUTYLATED HYDROXYTOLUENE] yielded an Inhibition of 97%.

Turning to `OC[C@H]1O[C@@H](O[C@@H](CCc2ccc(O)cc2)C[C@@H](O)CCc2ccc(O)cc2)[C@H](O)[C@H](O)[C@H]1O`, in the assay filed under Rattus norvegicus [1], the inhibition at 10 µM is 7.4%. In addition, in the assay filed under Rattus norvegicus [2], the inhibition at 3 µM turned out to be 9.9%. Also, the inhibition at 30 µM in the assay listed under Rattus norvegicus [3] is 21.7%. In the assay filed under Rattus norvegicus [4], the Inhibition was determined as 61.8%. In addition, the inhibition in the assay listed under Rattus norvegicus [5] was 1.8%. In the assay listed under Rattus norvegicus [6], the inhibition at 100 µM was found to be 37.4%.
